From article PMC9962512, “Synthesis and Anti-Angiogenic Activity of Novel c(RGDyK) Peptide-Based JH-VII-139-1 Conjugates” (Pharmaceutics, 2023)
Read-outs that look alike come from different tables or passages of the source.

Experiments:
human SRPK1 = target: T1, human SRPK1 (Homo sapiens, UniProt Q96SB4); assay: In vitro kinase assay (GST-SRPK1, GST-LBRNt(62-92) substrate, radioactive); assay type: biochemical; settings: 25 μM ATP; mean ± SD of three experiments; read-out: IC50 (nΜ) for SRPK1
T1 construct: made in house; host or cells: bacteria (pGEX-2T vector)
T1 sequence (Q96SB4 whole entry): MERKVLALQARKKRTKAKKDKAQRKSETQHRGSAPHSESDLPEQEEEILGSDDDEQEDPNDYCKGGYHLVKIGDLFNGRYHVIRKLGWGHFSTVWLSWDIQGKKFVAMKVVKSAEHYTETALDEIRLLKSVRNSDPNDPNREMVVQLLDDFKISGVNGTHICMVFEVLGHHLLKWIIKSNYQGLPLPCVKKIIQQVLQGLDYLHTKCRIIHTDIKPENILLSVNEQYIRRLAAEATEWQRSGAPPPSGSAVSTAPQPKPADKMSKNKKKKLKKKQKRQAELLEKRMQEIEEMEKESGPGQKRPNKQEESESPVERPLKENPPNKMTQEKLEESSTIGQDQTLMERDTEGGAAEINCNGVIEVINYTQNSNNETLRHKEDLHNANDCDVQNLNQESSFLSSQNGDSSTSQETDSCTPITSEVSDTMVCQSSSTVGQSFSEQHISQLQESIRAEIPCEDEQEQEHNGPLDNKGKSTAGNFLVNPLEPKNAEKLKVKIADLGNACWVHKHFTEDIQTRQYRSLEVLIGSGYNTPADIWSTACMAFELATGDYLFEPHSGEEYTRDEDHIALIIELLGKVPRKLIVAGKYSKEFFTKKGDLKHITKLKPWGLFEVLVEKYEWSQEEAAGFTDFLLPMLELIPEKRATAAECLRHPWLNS
Procedure: The pGEX-2T bacterial expression vector (Amersham Biosciences GmbH, Freiburg, Germany) was used to construct plasmids that encode human SRPK1 and a fragment of the N-terminal domain of turkey LBR comprising amino acids 62–92 (LBRNt(62–92)). The GST-fusion proteins were produced in bacteria and purified using glutathione-Sepharose (Amersham Biosciences) according to the manufacturer’s instructions. Kinase assays were carried out in a total volume of 25 μL containing 0.5 μg GST-SRPK1, 1.5 μg GST-LBRNt(62–92) as substrate, 12 mM Hepes pH 7.5, 10 mM MgCl2, 25 μM ATP, and increasing concentrations of the inhibitors as indicated. In all assays, the final concentration of dimethyl sulfoxide (DMSO) was adjusted to 4%. Phosphorylated GST-LBRNt(62–92) was detected by autoradiography using Super RX (Fuji medical X-ray film,(Fujifilm Holdings Corporation, Tokyo, Japan)). Incorporated radioactivity was quantified by excising the radioactive bands from the SDS-PAGE gel and scintillation counting.

[1] = system: HeLa, MCF-7, MDA-MB-231 and K562 cancer cells; assay: MTT assay, summary over the cell panel; assay type: cell-based; settings: HeLa, MCF-7, MDA-MB-231 and K562; 48 h; read-out: GI50 (cytostatic effect), range over compounds and cell lines
Procedure: (§1) HeLa, MCF7, MDA-MB-231 and K562 cancer cell lines were provided by ATCC (American Type Culture Collection). Cells were incubated at 37 °C with 5% CO2. HeLa, MCF7 and MDA-MB-231 cells were maintained in DMEM, while K562 cells were maintained in RPMI medium, both supplemented with 10% (v/v) fetal bovine serum (FBS) and antibiotics/antimycotics.
(§2) HeLa, MCF7, MDA-MB-231 and K562 cells were seeded in 96-well plates (3 × 10^3 cells per well) and grown in medium supplemented with 10% FBS as monolayers at 37 °C in a 5% CO2 incubator. One day after seeding, cells were exposed to increasing concentrations of the inhibitors for 48 h. The viability of the cells was estimated by an (3-(4,5-imethylthiazol-2-yl)-2,5-diphenyltetrazolium bromide (MTT) metabolic assay as described previously, and the percentage growth inhibition (GI50, TGI, IC50) was calculated according to National Cancer Institute recommendations as referred to Leonidis et al.. Values shown represent the means ± SE of three independent experiments.

[2] = MTT assay, summary over the cell panel; assay type: cell-based
Procedure: as §1, §2

HeLa cells = assay: cells; assay type: cell-based; settings: 48 h; for TGI: total growth inhibition
Procedure: as §1, §2

MDA-MB-231 cells = assay: cells; assay type: cell-based; settings: for TGI: total growth inhibition
Procedure: as §1, §2

K562 cells = assay: cells; assay type: cell-based; settings: for TGI: total growth inhibition
Procedure: as §1, §2

MCF7 cells = assay: cells; assay type: cell-based; settings: for TGI: total growth inhibition
Procedure: as §1, §2

[3] = Stability in Dulbecco's Modified Eagle Medium (+10% FBS); assay type: in vitro ADME; settings: for half-life at 396 µg/mL: DMEM + 10% FBS, read-out: half-life t1/2
Procedure: Conjugates geo75, geo77, geo85 and geo107 (200 μg in 5 μL DMSO) were diluted in 0.5 mL DMEM (+10% fetal bovine serum) mixture and incubated at 37 °C. At predetermined time intervals, 50 μL of the mixture was removed and quenched with 150 μL water/acetonitrile/formic acid solution (100/100/0.1 volume ratio) and the sample was analyzed by LC-MS. Three independent experiments were carried out and the results are presented as the mean ± standard deviation.

[4] = system: zebrafish Tg(kdrl:gfp) embryos; assay: Zebrafish angiogenesis assay, intersegmental vessels (ISVs); assay type: in vivo; settings: 10 μM, added 24 hpf, imaged 72 hpf
Procedure: The Tg(kdrl:gfp)^s843 [38] was used to measure angiogenesis. Zebrafish breeding was carried out according to the European Directive 2010/63 and the Recommended Guidelines for Zebrafish Husbandry Conditions.
Zebrafish Tg(kdrl:gfp)^s843 embryos were raised in E3 medium up to 24 hpf; then dechorinated and finally transferred to a 12-well plate (10 embryos per well). Each compound was dissolved in DMSO and then added in the wells at the following final concentrations: 10 μM JH-VII-139-1 and c(RGDyK), and 1.3 μM geo75, geo77, geo85, geo107. Treated embryos and control embryos (at the corresponding DMSO concentration) were kept at 28 °C and imaged at 72 hpf.
After anesthetizing embryos with 0.4% tricaine methanesulfonate (MS222), a fluorescent image was acquired using a Hamamatsu ORCA-Flash4.0LT digital camera. We used the total length of 8 intersegmental vessels (ISVs) per embryo and the width from each of the above ISVs was measured at three different points, i.e., the top, the middle, and the bottom point of each ISV, and then the average width was estimated. We measured the 8 ISVs that flank the end of the yolk extension. Length and widths were measured using the open-source software ImageJ 1.53a (http://imagej.nih.gov/ij (accessed on 30 May 2022)). A total of 30 embryos (4–7 per group) from independent experiments were measured. […]

SRPK1 = system: SRPK1; parameters: method as in PMID 29478907; settings: SRPK1 ref 27; cited from earlier work
[5] = system: angiogenesis in AMD animal model; parameters: method as in PMID 29478907; settings: AMD animal model ref 27; cited from earlier work
[6] = Stability in human plasma; assay type: in vitro ADME; settings: for half-life at 495 µg/mL: human, read-out: half-life t1/2
Procedure: First, 250 μg of (JH-VII-139-1)-c(RGDyK)-based conjugates were diluted in 5 μL DMSO and the mixture was added to 0.5 mL of human plasma. The mixtures were incubated at 37 °C. 50 μL of aliquot was removed at predetermined time points and quenched with 150 μL ice-cold acetonitrile (+0.1% formic acid). Then, the mixture was centrifuged at 10,000 rpm for 10 min. Then, 50 μL of supernatant was added to 50 μL of ultrapure water (+0.1% formic acid) and analyzed by LC-MS. Results are presented as the mean ± SD of three independent experiments.

α5β1 integrins = system: α5β1 integrins; parameters: method as in PMID 28074920; settings: α5β1 ref 25; cited from earlier work
physchem [7] = settings: buffer, pH 5.2
Procedure: (§3) The mixture was then incubated at 37 °C, samples were collected at predetermined time points (0, 1, 2, 3, 4, 5, 24 and 48 h), and analyzed by LC-MS. Results are presented as the mean ± of SD after repeating the experiment three times.

[8] = buffer, pH 7.4
Procedure: as §3

physchem [9] = settings: buffer, pH 7.4
Procedure: as §3

[10] = DMEM with 10% fetal bovine serum, 37 °C

Compound | IC50 (human SRPK1) [µM] | GI50 (HeLa cells) [µM] | IC50 (HeLa cells) [µM] | GI50 (MDA-MB-231 cells; 48 h) [µM] | IC50 (MDA-MB-231 cells; 48 h) [µM] | GI50 (K562 cells; 48 h) [µM] | IC50 (K562 cells; 48 h) [µM] | IC50 [2] [µM] | TGI (HeLa cells; HeLa) [μΜ] | TGI (MDA-MB-231 cells; MDA-MB-231, 48 h) [μΜ] | TGI (K562 cells; K562, 48 h) [μΜ] | TGI (MCF7 cells; MCF7, 48 h) [μΜ] | inhibition of total width of ISVs [4] | GI50 (MCF7 cells; 48 h) [µM] | IC50 (MCF7 cells; 48 h) [µM] | half-life (physchem [7]) [h] | half-life t1/2 [8] | half-life at 495 µg/mL ([6]; 37 °C) [h] | half-life (physchem [9]) [h] | half-life at 396 µg/mL [3, 10] [h] | also measured
CCc1cc2c(cc1-c1cc[nH]n1)C(C)(C)c1[nH]c3cc(C#N)ccc3c1C2=O [JH-VII-139-1, 9-Ethyl-6,6-dimethyl-11-oxo-8-(1H-pyrazol-3-yl)-6,11-dihydro-5H-benzo[b]carbazole-3-carbonitrile] | 0.032 ± 0.0005 | – | – | – | – | – | – | – | 19 ± 0.2 | 21 ± 0.4 | 15 ± 0.5 | 19 ± 0.3 | non-significant trend | – | – | – | – | – | – | – | GI50 [1]: 4 to 12 µM; IC50 at 48 h ([2]; human, MDA-MB-231 and K562 cancer cells, HeLa, MCF-7, MDA-MB-231 and K562, 48 h, read-out: IC50 (cytotoxic effect), range over compounds and cell lines): 3 to 18 µM; GI50 (HeLa cells; Homo sapiens, HeLa, 50% growth inhibition, read-out: GI50): 8 ± 0.2 µM; IC50 (HeLa cells; Homo sapiens, HeLa, cytotoxic effect, read-out: IC50): 14 ± 0.8 µM; GI50 (MDA-MB-231 cells; Homo sapiens, MDA-MB-231, 48 h, 50% growth inhibition, read-out: GI50): 11 ± 0.3 µM; IC50 (MDA-MB-231 cells; Homo sapiens, MDA-MB-231, 48 h, cytotoxic effect, read-out: IC50): 18 ± 0.5 µM; GI50 (K562 cells; Homo sapiens, K562, 48 h, 50% growth inhibition, read-out: GI50): 8 ± 0.5 µM; IC50 (K562 cells; Homo sapiens, K562, 48 h, cytotoxic effect, read-out: IC50): 13 ± 0.3 µM; GI50 (MCF7 cells; Homo sapiens, MCF7, 48 h, 50% growth inhibition, read-out: GI50): 9 ± 0.2 µM; IC50 (MCF7 cells; Homo sapiens, MCF7, 48 h, cytotoxic effect, read-out: IC50): 8 ± 0.6 µM; half-life at 396 µg/mL ([3]; bovine, DMEM with 10% fetal bovine serum (cell-free), 37 °C): > 48 h; IC50 (SRPK1): 0.0011 µM; effect on angiogenesis [5]: blocks angiogenesis; half-life at 495 µg/mL ([6]; plasma, 37 °C): > 48 h
N=C(N)NCCC[C@@H]1NC(=O)[C@H](CCCCN)NC(=O)[C@@H](Cc2ccc(O)cc2)NC(=O)[C@H](CC(=O)O)NC(=O)CNC1=O [c(RGDyK)] | – | 79 ± 2.2 | […] | […] | […] | […] | […] | – | […] | […] | […] | […] | non-significant trend | […] | […] | – | – | – | – | – | IC50 (α5β1 integrins): 0.236 ± 0.045 µM
CCc1cc2c(cc1-c1ccn(C(=O)NCCOCCOCCNC(=O)N[C@@H](CCCCN)C(=O)NCCCC[C@@H]3NC(=O)[C@@H](Cc4ccc(O)cc4)NC(=O)[C@H](CC(=O)O)NC(=O)CNC(=O)[C@H](CCCNC(=N)N)NC3=O)n1)C(C)(C)c1[nH]c3cc(C#N)ccc3c1C2=O [geo107] | – | – | – | – | – | – | – | – | – | – | – | – | – | – | – | > 48 | – | > 48 | > 48 | > 48 | residual concentration (of initial concentration), lowest ([3]; cell media (DMEM), up to 48 h): ≥ 80%; residual concentration (of initial concentration), lowest ([6]; up to 48 h): ≥ 80%

Now from value to compound, other results behind:

IC50 (human SRPK1) [µM] | GI50 (HeLa cells) [µM] | IC50 (HeLa cells) [µM] | GI50 (MDA-MB-231 cells; 48 h) [µM] | IC50 (MDA-MB-231 cells; 48 h) [µM] | GI50 (K562 cells; 48 h) [µM] | IC50 (K562 cells; 48 h) [µM] | IC50 [2] [µM] | Compound | TGI (HeLa cells; HeLa) [μΜ] | TGI (MDA-MB-231 cells; MDA-MB-231, 48 h) [μΜ] | TGI (K562 cells; K562, 48 h) [μΜ] | TGI (MCF7 cells; MCF7, 48 h) [μΜ] | inhibition of total width of ISVs [4] | GI50 (MCF7 cells; 48 h) [µM] | IC50 (MCF7 cells; 48 h) [µM] | half-life (physchem [7]) [h] | half-life t1/2 [8] | half-life at 495 µg/mL ([6]; 37 °C) [h] | half-life (physchem [9]) [h] | half-life at 396 µg/mL [3, 10] [h] | also measured
0.035 ± 0.0011 | – | – | – | – | – | – | 3 to 18 | CCc1cc2c(cc1-c1ccn(C(=O)OCCOCCOCCOC(=O)NCCCC[C@@H]3NC(=O)[C@@H](Cc4ccc(O)cc4)NC(=O)[C@H](CC(=O)O)NC(=O)CNC(=O)[C@H](CCCNC(=N)N)NC3=O)n1)C(C)(C)c1[nH]c3cc(C#N)ccc3c1C2=O [geo75] | – | – | – | – | – | – | – | > 48 | 24h 15min h min | 0.183 | – | – | time after which almost completely hydrolyzed ([3]; DMEM, 37 °C): 9 h; time after which almost completely hydrolyzed ([6]; 37 °C): 1 h
0.03 ± 0.0017 | 5 ± 0.2 | 9 ± 0.2 | 8 ± 0.5 | 10 ± 0.3 | 12 ± 0.9 | 17 ± 0.5 | 3 to 18 | CCc1cc2c(cc1-c1ccn(C(=O)CCCC(=O)NCCCC[C@@H]3NC(=O)[C@@H](Cc4ccc(O)cc4)NC(=O)[C@H](CC(=O)O)NC(=O)CNC(=O)[C@H](CCCNC(=N)N)NC3=O)n1)C(C)(C)c1[nH]c3cc(C#N)ccc3c1C2=O [geo77] | – | – | – | – | – | 4 ± 0.4 | 3 ± 0.4 | – | 1 h 44 min h min | 0.167 to 0.833 | – | – | –
0.042 ± 0.0019 | > 100 | > 100 | > 100 | > 100 | > 100 | > 100 | – | CCc1cc2c(cc1-c1ccn(C(=O)NCCOCCOCCNC(=O)NCCCC[C@@H]3NC(=O)[C@@H](Cc4ccc(O)cc4)NC(=O)[C@H](CC(=O)O)NC(=O)CNC(=O)[C@H](CCCNC(=N)N)NC3=O)n1)C(C)(C)c1[nH]c3cc(C#N)ccc3c1C2=O [geo85] | – | – | – | – | – | – | – | > 48 | – | > 48 | > 48 | > 48 | hydrolysis ([3]; DMEM, after 24 h): 10%; metabolised at 24 h, 495 µg/mL ([6]; after 24 h, read-out: hydrolysis): 10%
